# In patent US20240197869A1, “HYPERACTIVATORS OF MAMMALIAN DENDRITIC CELLS” (Corner Therapeutics, Inc., priority 2021, published 2024):
# “Also recorded” adds a separate entry of the source. Residues, ends and D or L forms follow the SMILES beside them. *: point of attachment. X1 = CCCCCCCCCCCCCCCC(=O)OCC(C*)OC(=O)CCCCCCCCCCCCCCC
# Assays:
# [1] = test system: human PBMCs; experiment: Cytokine secretion (IL-1β, IFNγ, TNFα) by human PBMCs; assay type: cell-based; details: 2 days
# Protocol: (§1) Isolation of PBMCs from Whole Blood. PBMCs were isolated from whole blood using density gradient centrifugation with Ficoll-Paque PLUS (Cytivia). Whole blood was diluted 1:1 with PBS, layered on top of Ficoll-Paque PLUS and centrifuged at 1000×g for 30 minutes at room temperature. PBMCs were collected, washed twice in PBS, and incubated with Ack lysis buffer (Lonza) to remove any remaining red blood cells.
# (§2) Cell Culture and Stimulation. […] Cells were plated at 1×10^5 (canine cells) or 1×10^6 (human cells) per well in 96-well flat bottom tissue culture plates. Lyophilized Vaccigrade R848 (Invivogen) was reconstituted and diluted according to manufacturer's recommendations and added to cells at a final concentration of 1 μg/mL.
# Quantification of Cytokine Secretion. IL-1β secretion from human PBMCs was assessed using one of the following kits: ELISA MAX Deluxe Set Human IL-1β kit (Biolegend), Invitrogen Human IL-1β kit, or the Lumit™ Human IL-1β Immunoassay (Promega). IFNγ secretion from human PBMCs was assessed using the ELISA MAX Deluxe Set Human IFNγ (Biolegend) and TNFα secretion from human PBMCs was assessed using the Human TNFα Uncoated ELISA kit (Invitrogen). ELISAs were performed according to manufacturer's instructions with the following modifications: i) total sample+buffer volume for incubation was reduced from 100 μL to 50 μL; ii) the top standard was prepared at […], with two-fold dilutions to […]; and iii) sample incubation was completed overnight at 4 C on an orbital shaker. Lumit™ assays were performed according to manufacturer's instructions. IL-1β secretion from canine PBMCs was assessed using the Canine IL-1β/IL-1F2 DuoSet ELISA (R&D) according to manufacturer's instructions with the following modifications: i) total sample+buffer volume for incubation was reduced from 100 μL to 50 μL; ii) sample incubation was completed overnight at 4° C. on an orbital shaker. For all ELISAs, absorbance was measured at 450 nm, with a 570 nm correction, using a Spectramax M5e plate reader (Molecular Devices). For Lumit™ assays, luminescence was measured on all wavelengths using a Spectramax M5e plate reader (Molecular Devices) with an integration time of 500 ms. To determine cytokine concentrations in supernatants, sample concentrations were interpolated using a standard curve via 4PL analysis on GraphPad Prism 9 (GraphPad Software). The interpolated results of samples were then adjusted for any dilutions made to the supernatant.
# [2] = test system: canine peripheral blood mononuclear cells (PBMCs); experiment: IL-1β secretion by canine PBMCs (ELISA); assay type: cell-based; details: stimulus as labelled, no hyperactivating lipid, 2 days
# Protocol: as §1, §2
# Quantification of Cytokine Secretion. IL-1β secretion from human PBMCs was assessed using one of the following kits: ELISA MAX Deluxe Set Human IL-1β kit (Biolegend), Invitrogen Human IL-1β kit, or the Lumit™ Human IL-1β Immunoassay (Promega). IFNγ secretion from human PBMCs was assessed using the ELISA MAX Deluxe Set Human IFNγ (Biolegend) and TNFα secretion from human PBMCs was assessed using the Human TNFα Uncoated ELISA kit (Invitrogen). […] IL-1β secretion from canine PBMCs was assessed using the Canine IL-1β/IL-1F2 DuoSet ELISA (R&D) according to manufacturer's instructions with the following modifications: i) total sample+buffer volume for incubation was reduced from 100 μL to 50 μL; ii) sample incubation was completed overnight at 4° C. on an orbital shaker. For all ELISAs, absorbance was measured at 450 nm, with a 570 nm correction, using a Spectramax M5e plate reader (Molecular Devices). For Lumit™ assays, luminescence was measured on all wavelengths using a Spectramax M5e plate reader (Molecular Devices) with an integration time of 500 ms. […]
# [3] = test system: human monocyte-derived dendritic cells (moDCs); experiment: Lipid titration: viability of human moDCs (CellTiter-Glo); details: 10.3 μM lipid + LPS 1 μg/mL, 2 days; relative to LPS-treated moDCs; Table 1-5
# Protocol: Lipid Titration. After 6 days of differentiation into moDC, cells were collected and counted. Cells were replated at 100,000 cells/well in R10 media in 96-well flat bottom tissue culture-treated plates. LPS, serotype 055:B5 (Enzo Life Sciences) was added to a final concentration of 1 μg/mL in each well. After the addition of LPS, lipids were prepared. […] After two days of culture, cell cultures were used for endpoint analyses.
# Endpoint Analyses. After culturing moDCs with PAMPs and DAMPs for two days, supernatant and cell samples were collected for analysis. Cells in culture were pelleted by centrifugation at 400×g for 5 min.
# (§6) Quantification of Cell Viability. Cell viability was assessed by quantifying the presence of ATP as an indicator of metabolically active cells using the CellTiter-Glo Luminescent Cell Viability Assay (Promega). Metabolic activity was assessed following manufacturer's instructions. The CellTiter-Glo reagent was mixed with the cell pellets and remaining supernatant, and transferred to a white, opaque 96-well plate. Luminescence was measured on all wavelengths on a Spectramax iD3 plate reader (Molecular Devices) using an integration time of 500 ms. Percent viability was calculated relative to the control condition of moDCs treated with LPS.
# Statistical Analyses. […] For each tested condition, cells from each donor were plated to be tested in triplicate.
# [4] = test system: human monocyte-derived dendritic cells (moDCs); experiment: DAMP screen: viability of human moDCs (CellTiter-Glo)
# Protocol: Danger-Associated Molecular Pattern (DAMP) Screen. After 6 days of differentiation into moDC, cells were collected and counted. Cells were plated at 100,000 cells/well in R10 media in 96-well flat bottom tissue culture-treated plates. LPS, serotype O55:B5 (Enzo Life Sciences) was added to a final concentration of 1 μg/mL in each well. […] Cells were incubated at 37° C., 5% CO2 for two days. Cell cultures were then used for endpoint analyses.
# Endpoint Analyses. After culturing moDCs with PAMPs and DAMPs for two days, supernatant and cell samples were collected for analysis.
# as §6
# [5] = test system: human monocyte-derived dendritic cells (moDCs); experiment: Lipid titration: IL-1β secretion by LPS-activated human moDCs; assay type: cell-based; details: for Activity Units (AU) ± SD (lipid activity index): reciprocal of lowest concentration giving IL-1β two-fold over LPS x highest IL-1β signal, lipid 1.3-82.5 μM + LPS
# Protocol: (§3) Quantification of IL-1beta Secretion. IL-1beta secretion was assessed using the ELISA MAX Deluxe Set Human IL-1beta kit (Biolegend). ELISAs were performed according to manufacturer's instructions with the following modifications: i) total sample volume for incubation was reduced from […] the top standard was prepared at […], with two-fold dilutions to […]; and iii) sample incubation was completed overnight at 4 C on an orbital shaker. […] To determine IL-1beta concentration in supernatants, sample IL-1beta concentrations were interpolated using a standard curve via 4PL analysis on GraphPad Prism 9 (GraphPad Software). The interpolated results of samples were then adjusted for any dilutions made to the supernatant.
# [6] = test system: human monocyte-derived dendritic cells (moDCs); experiment: DAMP screen: IL-1β secretion by LPS-activated human moDCs (ELISA); assay type: cell-based
# Protocol: Danger-Associated Molecular Pattern (DAMP) Screen.
# as §3
# [7] = test system: human PBMCs; experiment: Viability of human PBMCs (CellTiter-Glo); assay type: cell-based; details: 2 days post-activation; lipids combined with R848
# Protocol: as §1, §2
# (§4) Quantification of Cell Viability.
# [8] = test system: canine peripheral blood mononuclear cells (PBMCs); experiment: Viability of canine PBMCs (CellTiter-Glo); assay type: cell-based; details: lipid combined with R848, 2 days; relative to R848 alone
# Protocol: as §1, §2, §4
# [9] = test system: non-human primate PBMCs; experiment: Cytokine secretion by non-human primate PBMCs (LegendPlex); assay type: cell-based, cynomolgus macaques
# Protocol: Non-human primate PBMC hyperactivation. Whole blood from cynomolgus macaques was diluted with an equal volume of PBS. A solution of 90% Ficoll-Paque PLUS and 10% RPMI was made, and diluted whole blood was overlayed on top of the diluted Ficoll. Cells were centrifuged at 1000 rcf for 30 minutes at room temperature with no brakes. The buffy coat layer was collected and washed twice with PBS. If red blood cell contamination was present, cells were incubated in ACK lysis buffer for 2 minutes before being washed with PBS to remove lysed red blood cells.
# Isolated PBMC were plated at 1×10^6 cells/well and cultured with or without hyperactivating stimuli. After 2 days incubation, cells were assessed for viability, and cell culture supernatant was used to measure cytokine output. Commercially available kits such as Biolegend LegendPlex kits were used as directed by manufacturer's protocol to quantify cytokines of interest.
# PBMC were obtained from 13 cynomolgus macaques. Each activation condition was tested in triplicate, and the mean value of the triplicate is graphed for the animal sample. Repeated measures one-way ANOVA was used to test for statistical significance followed by Dunnett's multiple comparisons test.
# [10] = test system: human monocyte-derived dendritic cells (moDCs); experiment: PAMP screen: viability of human moDCs with PRR agonist and 22:0 Lyso PC; assay type: cell-based; details: 2 days
# Protocol: (§5) Pathogen-Associated Molecular Pattern (PAMP) Screen. Innate immune signaling pathway agonists were purchased from Invivogen. Lyophilized stocks were reconstituted and stored according to manufacturer's instructions and at recommended concentrations. […] Innate immune signaling agonists were diluted in R10 media to the manufacturer's recommended working concentration and then added onto cells. 22:0 Lyso PC was then reconstituted from a lyophilized stock in R10 and then further diluted. The lipid was added onto cells at a final concentration of 20 μM. Cells were incubated for 2 days, then cultures were collected for endpoint analyses.
# as §4
# [11] = test system: human monocyte-derived dendritic cells (moDCs); experiment: PAMP screen: IL-1β secretion by human moDCs with PRR agonist and 22:0 Lyso PC; assay type: cell-based; details: 2 days
# Protocol: as §5, §3
# [12] = stimulus as labelled, no hyperactivating lipid
# [13] = 41.3 μM lipid + LPS 1 μg/mL, 2 days, relative to LPS-treated moDCs, Table 1-2
# [14] = 82.5 μM lipid + LPS 1 μg/mL, 2 days, relative to LPS-treated moDCs, Table 1-1
# [15] = 82.5 μM lipid + LPS, selected lipids, Table 1-3 (repeats Table 1-1)
# [16] = 10.3 μM lipid + LPS 1 μg/mL, 2 days, Table 1-5
# [17] = 20.6 μM lipid + LPS, human moDCs, 4 donors, mean (SD in wrapped line below)
# [18] = 41.3 μM lipid + LPS 1 μg/mL, 2 days, Table 1-2
# [19] = 82.5 uM lipid + R848 vs R848 alone, 2 days
# [20] = high dose PAMP + 22:0 Lyso PC 20 μM
Molecule,Relative Viability (%) ± SD [3],"Relative Viability (%) ± SD [4, 13]","Relative Viability (%) ± SD [4, 14]","Relative Viability (%) ± SD [4, 15]","IL-1β secretion [5, 16]","IL-1β secretion [5, 17]","IL-1β secretion [6, 18]","IL-1β secretion [6, 15]",Activity Units (AU) ± SD (lipid activity index) [5],other results
"Nc1nc2c(ncn2[C@@H]2O[C@@H]3COP(=O)(O)O[C@H]4[C@@H](O)[C@H](n5cnc6c(N)ncnc65)O[C@@H]4COP(=O)(O)O[C@@H]2[C@@H]3O)c(=O)[nH]1 [2′3′cGAMP, reference compound]",,,,,,,,,,"IFNγ secretion, fold change relative to R848 alone (in words) [1, 12]: neither GM-CSF nor 2′3′cGAMP elicited a substantial fold change in IFNγ secretion over R848 alone; IL-1β secretion (in words) [2]: neither GM-CSF nor 2′3′cGAMP induced significant IL-1β secretion"
"CCCCCCCCCCCCCCCCCCCCCCCC(=O)OC[C@@H](O)COP(=O)([O-])OCC[N+](C)(C)C [24:0 LYSO PC, 1-lignoceroyl-2-hydroxy-sn-glycero-3-phosphocholine]",96.8%,94.6%,96.0%,96.0%,36.5 pg/mL,36.6 pg/mL,38.8 pg/mL,39.7 pg/mL,,
"CCCCCCCCCCCCCCCC(=O)OC[C@H](COP(=O)([O-])OCC[N+](C)(C)C)OC(=O)CCCCCCCC(=O)O [PAzePC, 1-palmitoyl-2-azelaoyl-sn-glycero-3-phosphocholine, reference compound]",98.0%,95.6%,78.8%,78.8%,47.9 pg/mL,59.0 pg/mL,191.7 pg/mL,153.4 pg/mL,1.81 ± 1.95 AU,
"CCCCCCCCCCCCCCCC(=O)OC[C@H](COP(=O)([O-])OCC[N+](C)(C)C)OC(=O)CCCC(=O)O [PGPC, 1-palmitoyl-2-glutaryl-sn-glycero-3-phosphocholine, reference compound]",98.5%,87.2%,58.6%,58.6%,52.8 pg/mL,69.2 pg/mL,132.9 pg/mL,271.6 pg/mL,3.46 ± 4.14 AU,"human PBMC viability (in words) [7]: not observed to be toxic; moDC viability (in words) ([4]; human moDCs, lipid screens of Example 1): not observed to be toxic; relative cell viability (in words) [8]: somewhat toxic to canine PBMCs; IL-1β secretion (in words) ([1]; lipid 82.5 μM combined with R848 1 μg/mL): did not induce substantially higher levels of IL-1β than R848 alone; cytokine fold changes relative to R848 alone (in words) ([9]; 41.3 uM lipid + R848): not as markedly increased; IL-1beta output (in words) ([9]; 82.5 uM lipid + R848 1 μg/mL vs R848 alone, 2 days): increased the IL-1beta output; IFN-beta secretion (in words) [9, 19]: increased; IFN-gamma secretion (in words) [9, 19]: significantly increased; IL-8 secretion (in words) [9, 19]: increased; IL-17a secretion (in words) [9, 19]: increased; IL-23 secretion (in words) [9, 19]: increased"
"CCCCCCCCCCCCCCCC(=O)OC[C@H](COP(=O)([O-])OCC[N+](C)(C)C)OC(=O)CCCC=O [POVPC, 1-palmitoyl-2-(5′-oxo-valeroyl)-sn-glycero-3-phosphocholine, reference compound]",97.3%,92.1%,79.5%,79.5%,49.1 pg/mL,60.6 pg/mL,121.5 pg/mL,168.5 pg/mL,0.00 ± 0.00 AU,
CCCCCCCCCCCCCCCC(=O)OCC(CSC[C@H](N)C(=O)N[C@@H](CO)C(=O)N[C@@H](CCCCN)C(=O)N[C@@H](CCCCN)C(=O)N[C@@H](CCCCN)C(=O)N[C@@H](CCCCN)C(=O)O)OC(=O)CCCCCCCCCCCCCCC (some centres unmarked) [Pam2CSK4] (H-C(X1)SKKKK-OH; N-terminus and C-terminus assumed),,,,,,,,,,"cell viability (in words) [10, 20]: little to no effect on cell viability; cell viability (in words) ([10]; low dose PAMP + 22:0 Lyso PC): Neither R848 nor Pam2CSK4 at the lower concentrations tested affected cell viability; IL-1β secretion (in words) [11, 20]: enabled IL-1β secretion; also recorded: induced IL-1β secretion; IL-1β secretion (in words) ([11]; low dose PAMP + 22:0 Lyso PC): IL-1β secretion was only observed"
CCOC(=O)C1=Cc2ccc(-c3cccc(C#N)c3)cc2N=C(N)C1 [TL8-506],,,,,,,,,,"IL-1β secretion (in words) [11, 20]: enabled IL-1β secretion; also recorded: induced IL-1β secretion"
"GM-CSF: human GM-CSF (Peprotech), added at 10 ng/mL",,,,,,,,,,"IFNγ secretion, fold change relative to R848 alone (in words) [1, 12]: neither GM-CSF nor 2′3′cGAMP elicited a substantial fold change in IFNγ secretion over R848 alone; IL-1β secretion (in words) [1, 12]: did not induce levels of IL-1β secretion from human PBMCs significantly above background levels; IL-1β secretion (in words) [2]: neither GM-CSF nor 2′3′cGAMP induced significant IL-1β secretion"
